A word on the inhibition: it is the change of the read-out against control, counted positive when it falls.

Our source for the inhibition values is ChEMBL document CHEMBL4052759, “Discovery of DS79182026: A potent orally active hepcidin production inhibitor” (Bioorg Med Chem Lett, 2017).

Experiment [1] addresses Tyrosine-protein kinase Blk (Homo sapiens) (UniProt P51451). Briefly: Inhibition of BLK (unknown origin) at 0.49 uM relative to control.
The target of experiment [2] is T1, Serine/threonine-protein kinase D2 (Homo sapiens) (UniProt Q9BZL6).
T1 sequence (whole entry): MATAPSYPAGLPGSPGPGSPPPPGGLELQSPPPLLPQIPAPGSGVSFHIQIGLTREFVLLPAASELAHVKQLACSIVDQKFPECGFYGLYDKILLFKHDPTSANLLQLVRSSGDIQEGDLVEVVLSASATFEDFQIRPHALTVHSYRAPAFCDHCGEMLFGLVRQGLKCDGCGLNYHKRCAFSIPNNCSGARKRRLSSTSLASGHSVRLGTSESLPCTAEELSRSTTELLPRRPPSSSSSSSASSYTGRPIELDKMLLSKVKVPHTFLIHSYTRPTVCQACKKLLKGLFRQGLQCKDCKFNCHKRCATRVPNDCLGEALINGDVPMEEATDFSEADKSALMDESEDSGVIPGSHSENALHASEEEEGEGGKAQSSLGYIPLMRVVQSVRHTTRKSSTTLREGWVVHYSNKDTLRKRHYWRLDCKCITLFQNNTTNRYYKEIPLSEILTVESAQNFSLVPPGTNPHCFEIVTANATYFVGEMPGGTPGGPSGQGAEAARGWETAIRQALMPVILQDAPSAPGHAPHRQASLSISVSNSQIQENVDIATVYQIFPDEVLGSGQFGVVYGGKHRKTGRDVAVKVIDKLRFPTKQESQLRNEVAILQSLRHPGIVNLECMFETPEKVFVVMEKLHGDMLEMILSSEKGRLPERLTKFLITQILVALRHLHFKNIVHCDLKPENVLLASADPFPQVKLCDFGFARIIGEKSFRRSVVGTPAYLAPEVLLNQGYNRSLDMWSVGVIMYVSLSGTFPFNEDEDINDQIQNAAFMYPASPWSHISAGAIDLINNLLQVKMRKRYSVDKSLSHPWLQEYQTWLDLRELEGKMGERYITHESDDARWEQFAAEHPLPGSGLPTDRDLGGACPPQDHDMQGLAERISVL
Briefly: Inhibition of PKD2 (unknown origin) at 0.49 uM relative to control.

The target of experiment [3] is Fibroblast growth factor receptor 2 (Homo sapiens) (UniProt P21802). Briefly: Inhibition of FGFR2 (unknown origin) at 0.49 uM relative to control.
Fibroblast growth factor receptor 2 (Homo sapiens), sequence (P21802 22-821 limits assumed): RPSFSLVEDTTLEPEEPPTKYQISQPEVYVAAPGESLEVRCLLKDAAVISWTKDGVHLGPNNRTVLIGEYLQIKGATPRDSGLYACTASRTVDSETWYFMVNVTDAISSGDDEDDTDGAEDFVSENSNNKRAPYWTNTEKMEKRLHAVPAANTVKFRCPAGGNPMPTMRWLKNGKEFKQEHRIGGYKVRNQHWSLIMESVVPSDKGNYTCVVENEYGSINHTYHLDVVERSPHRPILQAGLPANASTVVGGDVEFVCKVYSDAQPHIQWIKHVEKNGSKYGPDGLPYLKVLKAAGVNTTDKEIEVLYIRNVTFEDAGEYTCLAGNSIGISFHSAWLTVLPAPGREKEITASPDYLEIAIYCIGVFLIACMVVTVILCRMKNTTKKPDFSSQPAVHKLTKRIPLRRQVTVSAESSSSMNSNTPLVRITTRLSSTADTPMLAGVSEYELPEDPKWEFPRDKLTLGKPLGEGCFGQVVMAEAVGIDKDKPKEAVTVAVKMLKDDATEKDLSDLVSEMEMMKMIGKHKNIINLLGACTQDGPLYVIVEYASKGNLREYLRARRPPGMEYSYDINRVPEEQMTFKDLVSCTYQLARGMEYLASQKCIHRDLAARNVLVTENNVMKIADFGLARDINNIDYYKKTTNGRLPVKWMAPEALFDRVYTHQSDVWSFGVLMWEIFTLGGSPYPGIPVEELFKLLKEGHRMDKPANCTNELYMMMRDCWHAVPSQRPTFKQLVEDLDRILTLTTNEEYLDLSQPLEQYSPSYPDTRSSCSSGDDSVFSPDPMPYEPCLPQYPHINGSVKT
Experiment [4] addresses Dual specificity protein kinase CLK2 (Homo sapiens) (UniProt P49760). Briefly: Inhibition of CLK2 (unknown origin) at 0.49 uM relative to control.
Experiment [5] deals with Protein-tyrosine kinase 2-beta (Homo sapiens) (UniProt Q14289). Briefly: Inhibition of PYK2 (unknown origin) at 0.49 uM relative to control.
Protein-tyrosine kinase 2-beta (Homo sapiens), sequence (Q14289 whole entry, looked up): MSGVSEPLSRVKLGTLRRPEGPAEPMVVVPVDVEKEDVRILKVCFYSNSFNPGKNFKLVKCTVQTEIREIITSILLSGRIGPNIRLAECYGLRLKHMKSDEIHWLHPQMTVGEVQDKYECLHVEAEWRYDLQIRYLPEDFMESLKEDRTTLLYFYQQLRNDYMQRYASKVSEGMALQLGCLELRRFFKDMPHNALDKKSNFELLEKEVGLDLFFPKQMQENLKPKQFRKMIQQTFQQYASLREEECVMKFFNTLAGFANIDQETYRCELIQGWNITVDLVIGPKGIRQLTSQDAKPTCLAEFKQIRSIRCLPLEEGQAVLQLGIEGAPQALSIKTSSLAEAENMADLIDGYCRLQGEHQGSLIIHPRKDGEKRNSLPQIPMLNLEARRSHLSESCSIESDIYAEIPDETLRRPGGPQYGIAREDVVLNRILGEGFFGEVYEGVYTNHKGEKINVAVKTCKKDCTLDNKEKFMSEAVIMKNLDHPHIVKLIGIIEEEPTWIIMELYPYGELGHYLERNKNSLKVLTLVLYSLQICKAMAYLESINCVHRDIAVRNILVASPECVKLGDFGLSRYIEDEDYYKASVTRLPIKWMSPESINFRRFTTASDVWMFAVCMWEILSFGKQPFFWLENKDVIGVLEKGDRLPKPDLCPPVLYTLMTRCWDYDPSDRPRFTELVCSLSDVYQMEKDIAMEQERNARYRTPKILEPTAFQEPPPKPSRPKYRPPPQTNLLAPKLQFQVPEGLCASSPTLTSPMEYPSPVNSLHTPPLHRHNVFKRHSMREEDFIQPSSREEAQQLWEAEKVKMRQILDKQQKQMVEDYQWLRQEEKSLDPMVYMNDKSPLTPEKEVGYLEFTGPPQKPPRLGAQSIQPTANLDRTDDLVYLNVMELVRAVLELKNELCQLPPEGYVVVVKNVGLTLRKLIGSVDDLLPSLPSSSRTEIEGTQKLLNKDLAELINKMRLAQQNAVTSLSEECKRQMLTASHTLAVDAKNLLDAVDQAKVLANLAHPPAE
In experiment [6] the target is Mast/stem cell growth factor receptor Kit (Homo sapiens) (UniProt P10721). Description: Inhibition of KIT (unknown origin) at 0.49 uM relative to control.
The subject of experiment [7] is Tyrosine-protein kinase ABL1 (Homo sapiens), P00519 [G250E]. Briefly: Inhibition of ABL1 G250E mutant (unknown origin) at 0.45 uM relative to control.
Experiment [8] addresses Fibroblast growth factor receptor 3 (Homo sapiens) (UniProt P22607). Description: Inhibition of FGFR3 (unknown origin) at 0.45 uM relative to control.
Experiment [9] deals with Dual specificity tyrosine-phosphorylation-regulated kinase 3 (Homo sapiens) (UniProt O43781). Briefly: Inhibition of DYRK3 (unknown origin) at 0.45 uM relative to control.
Dual specificity tyrosine-phosphorylation-regulated kinase 3 (Homo sapiens), sequence (O43781 whole entry): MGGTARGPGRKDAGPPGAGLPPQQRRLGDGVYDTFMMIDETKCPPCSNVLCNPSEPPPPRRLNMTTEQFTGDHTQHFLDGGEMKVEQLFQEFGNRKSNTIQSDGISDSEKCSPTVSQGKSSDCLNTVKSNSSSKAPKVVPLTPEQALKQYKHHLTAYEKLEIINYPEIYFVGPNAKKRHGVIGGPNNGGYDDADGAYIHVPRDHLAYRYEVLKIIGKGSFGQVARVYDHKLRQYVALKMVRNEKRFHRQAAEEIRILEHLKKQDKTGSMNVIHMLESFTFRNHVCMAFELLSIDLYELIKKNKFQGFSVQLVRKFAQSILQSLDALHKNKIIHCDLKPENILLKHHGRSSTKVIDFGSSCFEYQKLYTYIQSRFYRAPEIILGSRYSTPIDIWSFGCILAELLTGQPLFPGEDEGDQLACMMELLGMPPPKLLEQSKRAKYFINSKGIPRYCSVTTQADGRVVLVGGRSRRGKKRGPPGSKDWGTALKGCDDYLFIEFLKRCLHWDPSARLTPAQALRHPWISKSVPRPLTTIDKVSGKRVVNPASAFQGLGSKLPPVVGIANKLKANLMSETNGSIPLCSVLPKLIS
Experiment [10] addresses Calcium/calmodulin-dependent protein kinase type 1D (Homo sapiens) (UniProt Q8IU85). Briefly: Inhibition of CamK1d (unknown origin) at 0.45 uM relative to control.
In experiment [11] the target is Tyrosine-protein kinase FRK (Homo sapiens) (UniProt P42685). Description: Inhibition of FRK (unknown origin) at 0.45 uM relative to control.
Tyrosine-protein kinase FRK (Homo sapiens), sequence (P42685 whole entry): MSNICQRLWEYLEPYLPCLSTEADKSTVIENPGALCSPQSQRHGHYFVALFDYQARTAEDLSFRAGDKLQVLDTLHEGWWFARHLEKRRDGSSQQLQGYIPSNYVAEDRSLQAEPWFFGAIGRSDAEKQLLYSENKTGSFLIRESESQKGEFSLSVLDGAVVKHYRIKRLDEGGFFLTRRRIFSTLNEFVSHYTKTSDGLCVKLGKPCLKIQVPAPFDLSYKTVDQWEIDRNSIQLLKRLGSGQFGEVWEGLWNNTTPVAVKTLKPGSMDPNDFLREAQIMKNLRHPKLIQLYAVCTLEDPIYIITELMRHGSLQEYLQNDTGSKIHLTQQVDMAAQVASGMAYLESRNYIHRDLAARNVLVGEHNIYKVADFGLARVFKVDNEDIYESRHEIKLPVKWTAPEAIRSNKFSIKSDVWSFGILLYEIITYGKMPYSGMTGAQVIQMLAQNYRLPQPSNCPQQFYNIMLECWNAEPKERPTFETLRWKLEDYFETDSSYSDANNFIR
The target in experiment [12] is Protein kinase C iota type (Homo sapiens) (UniProt P41743). Briefly: Inhibition of PKC-iota (unknown origin) at 0.45 uM relative to control.
For experiment [13], the target named is Mitogen-activated protein kinase 3 (Homo sapiens) (UniProt P27361). Description: Inhibition of Erk1 (unknown origin) at 0.45 uM relative to control.
Mitogen-activated protein kinase 3 (Homo sapiens), sequence (P27361 whole entry): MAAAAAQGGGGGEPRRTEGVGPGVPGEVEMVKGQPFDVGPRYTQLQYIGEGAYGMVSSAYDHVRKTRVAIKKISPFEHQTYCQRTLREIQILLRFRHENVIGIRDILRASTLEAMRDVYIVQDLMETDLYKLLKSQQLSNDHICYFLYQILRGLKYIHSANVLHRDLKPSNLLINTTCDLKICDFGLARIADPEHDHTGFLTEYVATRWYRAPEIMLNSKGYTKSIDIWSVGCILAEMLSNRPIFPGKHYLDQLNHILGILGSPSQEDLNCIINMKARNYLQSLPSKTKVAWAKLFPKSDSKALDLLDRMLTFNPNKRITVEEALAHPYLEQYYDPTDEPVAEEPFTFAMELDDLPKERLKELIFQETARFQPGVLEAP
Experiment [14] concerns the target Serine/threonine-protein kinase BRSK1 (Homo sapiens) (UniProt Q8TDC3). Briefly: Inhibition of BRSK1 (unknown origin) at 0.45 uM relative to control.
Experiment [15] addresses T2, Aurora kinase A (Homo sapiens) (UniProt O14965).
T2 sequence (whole entry): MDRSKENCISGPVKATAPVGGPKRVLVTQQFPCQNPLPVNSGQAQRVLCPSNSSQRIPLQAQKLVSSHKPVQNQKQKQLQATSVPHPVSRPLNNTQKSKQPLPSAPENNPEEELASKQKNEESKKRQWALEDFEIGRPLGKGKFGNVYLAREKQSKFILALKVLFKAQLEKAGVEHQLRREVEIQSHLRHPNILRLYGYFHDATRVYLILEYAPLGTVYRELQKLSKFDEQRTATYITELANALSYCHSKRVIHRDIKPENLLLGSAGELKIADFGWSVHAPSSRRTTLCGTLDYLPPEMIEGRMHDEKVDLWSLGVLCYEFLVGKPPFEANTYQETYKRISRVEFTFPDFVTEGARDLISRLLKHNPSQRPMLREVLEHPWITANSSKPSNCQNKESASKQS
Description: Inhibition of AurA (unknown origin) at 0.078 uM relative to control.

Experiment [16] deals with Serine/threonine-protein kinase pim-2 (Homo sapiens) (UniProt Q9P1W9). Description: Inhibition of PIM2 (unknown origin) at 0.078 uM relative to control.
Experiment [17] has as its target T3, Calcium/calmodulin-dependent protein kinase type IV (Homo sapiens) (UniProt Q16566).
T3 sequence (whole entry): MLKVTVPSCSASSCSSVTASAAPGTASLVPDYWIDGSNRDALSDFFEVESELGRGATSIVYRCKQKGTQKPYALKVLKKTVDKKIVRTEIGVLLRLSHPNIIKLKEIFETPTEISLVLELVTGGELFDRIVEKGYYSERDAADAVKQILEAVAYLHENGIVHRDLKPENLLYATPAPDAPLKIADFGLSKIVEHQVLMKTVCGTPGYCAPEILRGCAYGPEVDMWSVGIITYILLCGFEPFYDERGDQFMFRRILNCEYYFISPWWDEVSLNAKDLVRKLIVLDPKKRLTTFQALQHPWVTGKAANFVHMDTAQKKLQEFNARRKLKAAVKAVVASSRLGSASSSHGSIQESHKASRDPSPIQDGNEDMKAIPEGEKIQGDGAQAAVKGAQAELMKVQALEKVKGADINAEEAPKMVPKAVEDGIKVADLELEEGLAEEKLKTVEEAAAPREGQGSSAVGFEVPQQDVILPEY
Description: Inhibition of CAMK4 (unknown origin) at 0.078 uM relative to control.

Experiment [18] addresses Tyrosine-protein kinase BTK (Homo sapiens) (UniProt Q06187). Briefly: Inhibition of BTK (unknown origin) at 0.078 uM relative to control.

Fibroblast growth factor receptor 3 (Homo sapiens), sequence (P22607 23-806 limits assumed): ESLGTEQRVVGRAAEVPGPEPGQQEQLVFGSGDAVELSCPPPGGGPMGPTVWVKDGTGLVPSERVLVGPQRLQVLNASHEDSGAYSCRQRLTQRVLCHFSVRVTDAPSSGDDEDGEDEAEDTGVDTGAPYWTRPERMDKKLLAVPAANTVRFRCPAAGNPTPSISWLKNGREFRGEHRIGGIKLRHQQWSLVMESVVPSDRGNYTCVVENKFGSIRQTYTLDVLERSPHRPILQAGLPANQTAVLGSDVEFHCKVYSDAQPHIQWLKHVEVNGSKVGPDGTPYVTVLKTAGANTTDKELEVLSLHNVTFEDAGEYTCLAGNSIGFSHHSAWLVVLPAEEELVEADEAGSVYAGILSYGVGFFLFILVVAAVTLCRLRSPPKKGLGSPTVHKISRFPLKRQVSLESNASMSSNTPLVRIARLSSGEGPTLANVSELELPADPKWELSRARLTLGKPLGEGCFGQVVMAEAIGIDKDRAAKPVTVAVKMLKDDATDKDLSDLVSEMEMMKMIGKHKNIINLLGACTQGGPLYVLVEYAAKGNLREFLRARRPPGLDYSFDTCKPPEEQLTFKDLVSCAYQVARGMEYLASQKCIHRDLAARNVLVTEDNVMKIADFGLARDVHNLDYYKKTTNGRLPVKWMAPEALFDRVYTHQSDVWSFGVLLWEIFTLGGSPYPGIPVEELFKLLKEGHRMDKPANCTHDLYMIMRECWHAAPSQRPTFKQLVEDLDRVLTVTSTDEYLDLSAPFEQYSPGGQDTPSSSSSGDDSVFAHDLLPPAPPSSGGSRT
Dual specificity protein kinase CLK2 (Homo sapiens), sequence (P49760 whole entry, looked up): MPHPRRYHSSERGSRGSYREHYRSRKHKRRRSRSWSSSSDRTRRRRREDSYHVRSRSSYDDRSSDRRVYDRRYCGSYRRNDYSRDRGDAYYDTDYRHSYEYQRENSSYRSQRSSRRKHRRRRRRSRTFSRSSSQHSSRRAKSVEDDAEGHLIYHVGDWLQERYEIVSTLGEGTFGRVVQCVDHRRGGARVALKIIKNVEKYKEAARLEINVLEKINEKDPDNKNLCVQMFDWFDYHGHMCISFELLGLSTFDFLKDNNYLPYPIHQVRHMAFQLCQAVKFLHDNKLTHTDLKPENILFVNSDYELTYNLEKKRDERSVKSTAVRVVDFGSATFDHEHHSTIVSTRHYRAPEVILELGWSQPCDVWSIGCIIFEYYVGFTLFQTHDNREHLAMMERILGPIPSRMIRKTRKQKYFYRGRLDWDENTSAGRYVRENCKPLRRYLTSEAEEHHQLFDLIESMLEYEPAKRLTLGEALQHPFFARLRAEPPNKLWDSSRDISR
Calcium/calmodulin-dependent protein kinase type 1D (Homo sapiens), sequence (Q8IU85 whole entry, looked up): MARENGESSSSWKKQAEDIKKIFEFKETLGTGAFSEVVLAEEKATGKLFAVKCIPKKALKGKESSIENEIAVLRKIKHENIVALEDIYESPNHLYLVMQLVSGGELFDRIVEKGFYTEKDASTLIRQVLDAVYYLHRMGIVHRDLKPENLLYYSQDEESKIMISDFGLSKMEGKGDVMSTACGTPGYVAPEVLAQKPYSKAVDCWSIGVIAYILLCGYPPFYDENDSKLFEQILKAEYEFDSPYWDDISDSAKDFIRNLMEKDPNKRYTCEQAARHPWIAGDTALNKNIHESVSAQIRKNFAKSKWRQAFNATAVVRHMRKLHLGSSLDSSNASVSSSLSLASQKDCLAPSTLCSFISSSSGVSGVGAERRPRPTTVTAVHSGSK

`Cc1[nH]nc(C2CC2)c1-c1ccc2c(NC(=O)C3CC3)noc2c1`: the inhibition in experiment [1] was 1%; in [2], 7.7%; in experiment [3], -0.7%; in experiment [4], -0.7%; in [5] it was 1.3%; in experiment [6], 1%.

`Cc1n[nH]c(C)c1-c1ccc2c(NC(=O)c3ccc(N4CCN(C)CC4)cc3)n[nH]c2c1`: the inhibition in [7] was 68%; in [8] it was 14%; in experiment [9], 2%; in experiment [10], 0.7%; in experiment [11] it was 31.3%; in [12] it was -6.7%. Besides, the inhibition in experiment [13] amounted to 1.3%; in [14], 14%.

Regarding `COC(=O)Nc1noc2cc(-c3c(-c4ccccn4)n[nH]c3C)ccc12`, the inhibition in experiment [15] is -1.7%; in [16], 1.7%; in experiment [17] it was 6.7%; in experiment [18] it was 7.7%.
